# Activity calls are given as the source filed them. The rule behind the calls is not given here.
# Assays:
# [1] = tested on: RAW264.7; assay: Antiinflammatory activity in LPS-induced mouse RAW264.7 macrophages assessed as suppression of TNF-alpha release pretreated at 10 uM for 2 hrs followed by stimulation with LPS for 22 hrs by ELISA; format: functional, cell-based
# [2] = Cytotoxicity against human HL-7702 cells at 10 uM after 24 hrs by MTT assay; format: cell-based; conditions: l02, 24 h
# [3] = tested on: RAW264.7; assay: Antiinflammatory activity in LPS-induced mouse RAW264.7 macrophages assessed as suppression of IL-6 mRNA level pretreated at 10 uM for 2 hrs followed by stimulation with LPS for 6 hrs by RT-qPCR analysis; format: functional, cell-based
# [4] = tested on: Peritoneal macrophage cell; assay: Antiinflammatory activity in LPS-induced ICR mouse peritoneal macrophages assessed as suppression of IL-6 release pretreated for 2 hrs followed by stimulation with LPS for 22 hrs by ELISA; format: functional, cell-based
# [5] = tested on: RAW264.7; assay: Antiinflammatory activity in LPS-induced mouse RAW264.7 macrophages assessed as suppression of TNF-alpha mRNA level pretreated at 10 uM for 2 hrs followed by stimulation with LPS for 6 hrs by RT-qPCR analysis; format: functional, cell-based
# [6] = tested on: Peritoneal macrophage cell; assay: Antiinflammatory activity in LPS-induced ICR mouse peritoneal macrophages assessed as suppression of TNF-alpha release pretreated for 2 hrs followed by stimulation with LPS for 22 hrs by ELISA; format: functional, cell-based
# [7] = tested on: Mus musculus; assay: Antiinflammatory activity in LPS-induced C57BL/6 mouse assessed as survival rate pretreated at 10 mg/kg, iv for 15 mins followed by LPS stimulation measured for 7 days; format: functional; conditions: C57BL/6, iv
# [8] = tested on: RAW264.7; assay: Antiinflammatory activity in LPS-induced mouse RAW264.7 macrophages assessed as suppression of IL-1beta mRNA level pretreated for 2 hrs followed by stimulation with LPS for 6 hrs by RT-qPCR analysis; format: functional, cell-based
# [9] = target: Transcription factor p65 (Mus musculus) (UniProt Q04207); assay: Inhibition of NFkappaB in LPS-induced mouse RAW264.7 cells assessed as decrease in P65 in nucleus pretreated for 2 hrs followed by stimulation with LPS for 1 hr by Western blot analysis; format: cell-based
# [10] = target: Transcription factor p65 (Mus musculus) (UniProt Q04207); assay: Inhibition of NFkappaB in LPS-induced mouse RAW264.7 cells assessed as increase in P65 in cytosol pretreated for 2 hrs followed by stimulation with LPS for 1 hr by Western blot analysis; format: cell-based
# [11] = tested on: RAW264.7; assay: Antiinflammatory activity in LPS-induced mouse RAW264.7 macrophages assessed as suppression of IL-6 mRNA level pretreated for 2 hrs followed by stimulation with LPS for 6 hrs by RT-qPCR analysis; format: functional, cell-based
# [12] = tested on: RAW264.7; assay: Antiinflammatory activity in LPS-induced mouse RAW264.7 macrophages assessed as suppression of TNF-alpha release pretreated for 2 hrs followed by stimulation with LPS for 22 hrs by ELISA; format: functional, cell-based
# [13] = Stability in phosphate buffer at pH 7.4 by UV-visible absorption analysis; format: physicochemical
# [14] = tested on: RAW264.7; assay: Inhibition of NFkappaB in LPS-induced mouse RAW264.7 cells assessed as suppression of binding of NF-kappabeta with DNA in nucleus pretreated for 2 hrs followed by stimulation with LPS for 1 hr by EMSA; format: cell-based
# [15] = tested on: RAW264.7; assay: Antiinflammatory activity in LPS-induced mouse RAW264.7 macrophages assessed as suppression of IL-6 release pretreated for 2 hrs followed by stimulation with LPS for 22 hrs by ELISA; format: functional, cell-based
# [16] = tested on: RAW264.7; assay: Antiinflammatory activity in LPS-induced mouse RAW264.7 macrophages assessed as suppression of TNF-alpha mRNA level pretreated for 2 hrs followed by stimulation with LPS for 6 hrs by RT-qPCR analysis; format: functional, cell-based
# [17] = tested on: RAW264.7; assay: Inhibition of LPS-induced IkappaB-alpha degradation in LPS-induced mouse RAW264.7 cells pretreated for 2 hrs followed by stimulation with LPS for 1 hr by Western blot analysis; format: cell-based
# [18] = tested on: RAW264.7; assay: Antiinflammatory activity in LPS-induced mouse RAW264.7 macrophages assessed as suppression of IL-1beta mRNA level pretreated at 10 uM for 2 hrs followed by stimulation with LPS for 6 hrs by RT-qPCR analysis; format: functional, cell-based
# [19] = tested on: RAW264.7; assay: Antiinflammatory activity in LPS-induced mouse RAW264.7 macrophages assessed as suppression of COX-2 mRNA level pretreated for 2 hrs followed by stimulation with LPS for 6 hrs by RT-qPCR analysis; format: functional, cell-based
# [20] = tested on: RAW264.7; assay: Antiinflammatory activity in LPS-induced mouse RAW264.7 macrophages assessed as suppression of COX-2 mRNA level pretreated at 10 uM for 2 hrs followed by stimulation with LPS for 6 hrs by RT-qPCR analysis; format: functional, cell-based
# Transcription factor p65 (Mus musculus), sequence (Q04207 whole entry): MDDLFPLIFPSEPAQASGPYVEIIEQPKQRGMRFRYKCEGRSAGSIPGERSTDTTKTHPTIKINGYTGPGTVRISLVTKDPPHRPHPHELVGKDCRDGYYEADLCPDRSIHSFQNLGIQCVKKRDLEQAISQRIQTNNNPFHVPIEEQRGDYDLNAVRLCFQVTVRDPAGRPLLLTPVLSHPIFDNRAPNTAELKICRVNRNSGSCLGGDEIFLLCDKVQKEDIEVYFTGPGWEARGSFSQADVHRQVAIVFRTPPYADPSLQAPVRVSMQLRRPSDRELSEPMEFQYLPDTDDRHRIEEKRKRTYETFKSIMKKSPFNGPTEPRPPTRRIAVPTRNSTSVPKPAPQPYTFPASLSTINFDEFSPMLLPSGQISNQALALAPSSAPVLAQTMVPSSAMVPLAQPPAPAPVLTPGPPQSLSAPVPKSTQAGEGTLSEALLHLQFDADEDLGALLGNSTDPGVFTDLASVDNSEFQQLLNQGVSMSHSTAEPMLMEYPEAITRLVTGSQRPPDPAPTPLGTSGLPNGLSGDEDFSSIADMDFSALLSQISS
smiles,measurement,setting,value
COc1cc(/C=C/C(=O)/C=C/c2cc(Br)ccc2Br)ccc1O,inhibition,[1],Active
same,Activity,[2],Non-toxic
COc1cc(/C=C/C(=O)/C=C/c2cc([N+](=O)[O-])ccc2F)ccc1O,Activity,[2],Non-toxic
COc1cc(/C=C/C(=O)/C=C/c2ccccc2C(F)(F)F)ccc1O,inhibition,[1],Active
same,Activity,[2],Non-toxic
COc1cc(/C=C/C(=O)/C=C/c2ccc(Br)cc2)ccc1O,Activity,[2],Non-toxic
COc1cc(/C=C/C(=O)/C=C/c2c(F)cccc2Br)ccc1O,Activity,[2],Non-toxic
COc1cc(/C=C/C(=O)/C=C/c2ccc3ccccc3c2)ccc1O,Activity,[2],Non-toxic
COc1cc(/C=C/C(=O)/C=C/c2ccccc2Cl)ccc1O,Activity,[2],Non-toxic
COc1cc(/C=C/C(=O)/C=C/c2cc(F)ccc2Br)ccc1O,inhibition,[1],Active
same,Activity,[2],Non-toxic
COc1cc(/C=C/C(=O)/C=C/c2cccc(Cl)c2Cl)ccc1O,inhibition,[1],Active
same,Activity,[2],Non-toxic
COc1cc(/C=C/C(=O)/C=C/c2ccc(Br)c(F)c2)ccc1O,Activity,[2],Non-toxic
COc1cc(/C=C/C(=O)/C=C/c2cccc(Br)c2)ccc1O,inhibition,[1],Active
same,Activity,[2],Non-toxic
COc1cc(/C=C/C(=O)/C=C/c2ccc3c(c2)CCN3)ccc1O,Activity,[2],Non-toxic
COc1ccc(Br)c(/C=C/C(=O)/C=C/c2ccc(O)c(OC)c2)c1,inhibition,[1],Active
same,Activity,[2],Non-toxic
COc1cc(/C=C/C(=O)/C=C/c2ccc(C(C)C)cc2)ccc1O,inhibition,[1],Active
same,Activity,[2],Non-toxic
COc1cc(/C=C/C(=O)/C=C/c2cccc(C(F)(F)F)c2F)ccc1O,inhibition,[1],Active
same,Activity,[2],Non-toxic
COc1cc(/C=C/C(=O)/C=C/c2ccc(C(F)(F)F)cc2)ccc1O,inhibition,[1],Active
same,Activity,[2],Non-toxic
COc1cc(/C=C/C(=O)/C=C/c2ccc([N+](=O)[O-])cc2[N+](=O)[O-])ccc1O,Activity,[2],Non-toxic
COc1cc(/C=C/C(=O)/C=C/c2ccccc2[N+](=O)[O-])ccc1O,inhibition,[3],Active
same,inhibition,[1],Active
same,inhibition,[4],Dose-dependent effect
same,inhibition,[5],Active
same,inhibition,[6],Dose-dependent effect
same,survival at 10 mg/kg,[7],55%
same,inhibition,[8],Dose-dependent effect
same,Activity,[9],Active
same,Activity,[2],Non-toxic
same,Activity,[10],Active
same,inhibition,[11],Dose-dependent effect
same,inhibition,[12],Dose-dependent effect
same,Stability,[13],Stable
same,inhibition,[14],Active
same,inhibition,[15],Dose-dependent effect
same,inhibition,[16],Dose-dependent effect
same,Activity,[17],Dose-dependent effect
same,inhibition,[18],Active
same,inhibition,[19],Dose-dependent effect
same,inhibition,[20],Active
COc1cc(/C=C/C(=O)/C=C/c2ccc(O)cc2Br)ccc1O,inhibition,[1],Active
same,Activity,[2],Non-toxic
COc1cc(/C=C/C(=O)CC(=O)/C=C/c2ccc(O)c(OC)c2)ccc1O [CURCUMIN],inhibition,[1],Active
same,Activity,[2],Non-toxic
COc1cc(/C=C/C(=O)/C=C/c2ccc(OC)c(Br)c2)ccc1O,inhibition,[3],Active
same,inhibition,[1],Active
same,inhibition,[4],Dose-dependent effect
same,inhibition,[5],Active
same,inhibition,[6],Dose-dependent effect
same,Activity,[2],Non-toxic
same,inhibition,[12],Dose-dependent effect
same,inhibition,[15],Dose-dependent effect
same,inhibition,[18],Active
same,inhibition,[20],Active
COc1cc(/C=C/C(=O)/C=C/c2ccc(OC)c(OC)c2OC)ccc1O,inhibition,[3],Active
same,inhibition,[1],Active
same,inhibition,[4],Dose-dependent effect
same,inhibition,[5],Active
same,inhibition,[6],Dose-dependent effect
same,Activity,[2],Non-toxic
same,inhibition,[12],Dose-dependent effect
same,Stability,[13],Stable
same,inhibition,[15],Dose-dependent effect
same,inhibition,[18],Active
same,inhibition,[20],Active
C=CCOc1ccc(/C=C/C(=O)/C=C/c2ccc(O)c(OC)c2)cc1,Activity,[2],Non-toxic
COc1cc(/C=C/C(=O)/C=C/c2c(C)cc(C)cc2C)ccc1O,inhibition,[3],Active
same,inhibition,[1],Active
same,inhibition,[4],Dose-dependent effect
same,inhibition,[5],Active
same,inhibition,[6],Dose-dependent effect
same,Activity,[2],Non-toxic
same,inhibition,[12],Dose-dependent effect
same,inhibition,[15],Dose-dependent effect
same,inhibition,[18],Active
same,inhibition,[20],Active
COc1ccc(F)c(/C=C/C(=O)/C=C/c2ccc(O)c(OC)c2)c1,Activity,[2],Non-toxic
COc1cc(/C=C/C(=O)/C=C/c2ccc(C(F)(F)F)cc2C(F)(F)F)ccc1O,inhibition,[1],Active
same,Activity,[2],Non-toxic
COc1cc(/C=C/C(=O)/C=C/c2cc3c(cc2Br)OCO3)ccc1O,inhibition,[3],Active
same,inhibition,[1],Active
same,inhibition,[4],Dose-dependent effect
same,inhibition,[5],Active
same,inhibition,[6],Dose-dependent effect
same,Activity,[2],Non-toxic
same,inhibition,[12],Dose-dependent effect
same,inhibition,[15],Dose-dependent effect
same,inhibition,[18],Active
same,inhibition,[20],Active
COc1cc(/C=C/C(=O)/C=C/c2cccc(O)c2)ccc1O,inhibition,[1],Active
same,Activity,[2],Non-toxic
COc1cc(/C=C/C(=O)/C=C/c2ccccc2Br)ccc1O,Activity,[2],Non-toxic
COc1cc(/C=C/C(=O)/C=C/c2cc(F)ccc2F)ccc1O,inhibition,[1],Active
same,Activity,[2],Non-toxic
COc1cc(/C=C/C(=O)/C=C/c2ccc(OC(C)=O)cc2)ccc1O,Activity,[2],Non-toxic
COc1ccc(/C=C/C(=O)/C=C/c2ccc(O)c(OC)c2)c(F)c1,inhibition,[3],Active
same,inhibition,[1],Active
same,inhibition,[4],Dose-dependent effect
same,inhibition,[5],Active
same,inhibition,[6],Dose-dependent effect
same,Activity,[2],Non-toxic
same,inhibition,[12],Dose-dependent effect
same,inhibition,[15],Dose-dependent effect
same,inhibition,[18],Active
same,inhibition,[20],Active

# Source: ChEMBL document CHEMBL3739320, “Synthesis and biological evaluation of novel semi-conservative monocarbonyl analogs of curcumin as anti-inflammatory agents” (Medchemcomm, 2015)
